# Measured values: patent publication US4742045A, “Glycopeptide antibiotics” (SmithKline Beckman Corporation, priority 1986, dated 1988)
# Like-named read-outs stand apart in the source and are kept apart here.
# System: Streptococcus faecalis
# Assay: standard microtiter assay, minimum inhibitory concentration
# Format: cell-based
# Outline: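 Standard microtiter broth assays, with MIC reported in μg/ml and averaged over several strains per species. The CWI-785 complex was tested, in some cases as HCl salts. Some runs used no serum, 50% human serum or 50% mouse serum.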
# [1] = Table 4, Strep. faecalis (12 strains)
compound,measurement,setting,value
"CN[C@H](CC(C)C)C(=O)N[C@H]1C(=O)N[C@@H](CC(N)=O)C(=O)N[C@H]2C(=O)N[C@H]3C(=O)N[C@H](C(=O)N[C@H](C(=O)O)c4cc(O)cc(O)c4-c4cc3ccc4O)[C@H](O)c3ccc(c(Cl)c3)Oc3cc2cc(c3O[C@@H]2O[C@H](CO)[C@@H](O)[C@H](O)[C@H]2O[C@H]2C[C@](C)(N)[C@H](O)[C@H](C)O2)Oc2ccc(cc2Cl)[C@H]1O [Vancomycin, vancomycin]",MIC50,Enterococcus faecalis,0.4 µg/mL
same,MIC,"Enterococcus faecalis, Table 5 organism 7 S. faecalis, 50% Hum. Serum",3.1 µg/mL
same,MIC,"Enterococcus faecalis, Table 5 organism 7 S. faecalis, 50% Mse. Serum",6.3 µg/mL
same,MIC,"Enterococcus faecalis, Table 5 organism 7 S. faecalis, No Serum",1.6 µg/mL
same,MIC,"Enterococcus faecalis, Table 5 organism 8 S. faecalis, 50% Hum. Serum",3.1 µg/mL
same,MIC,"Enterococcus faecalis, Table 5 organism 8 S. faecalis, 50% Mse. Serum",6.3 µg/mL
same,MIC,"Enterococcus faecalis, Table 5 organism 8 S. faecalis, No Serum",1.6 µg/mL
same,MBC,"Enterococcus faecalis, read-out: MBC50",50 µg/mL
same,MIC,"Enterococcus faecalis, read-out: minimum inhibitory concentration, Table 2 test organism 9, Streptococcus faecalis strain",1.6 µg/mL
same,MIC,"Enterococcus faecalis, read-out: minimum inhibitory concentration, Table 2 test organism 10, Streptococcus faecalis strain",1.6 µg/mL
same,MIC RANGE,[1],0.4 to 0.8 µg/mL
teicoplanin,minimum inhibitory concentration,"Table 2 test organism 9, Streptococcus faecalis strain",< 0.1 µg/mL
same,minimum inhibitory concentration,"Table 2 test organism 10, Streptococcus faecalis strain",< 0.1 µg/mL
same,MIC50,[1],<= 0.1 μg/ml
same,MIC RANGE,[1],<=0.1-0.2 μg/ml
same,MBC50,"Table 4, Strep. faecalis MBC50",6.3 µg/mL
same,MBC RANGE,"Table 4, Strep. faecalis MBC50 column",1.6 to 25 µg/mL
same,MIC,"Table 5 organism 7 S. faecalis, 50% Hum. Serum",6.3 µg/mL
same,MIC,"Table 5 organism 7 S. faecalis, 50% Mse. Serum",1.6 µg/mL
same,MIC,"Table 5 organism 7 S. faecalis, No Serum",<= 0.1 μg/ml
same,MIC,"Table 5 organism 8 S. faecalis, 50% Hum. Serum",6.3 µg/mL
same,MIC,"Table 5 organism 8 S. faecalis, 50% Mse. Serum",3.1 µg/mL
same,MIC,"Table 5 organism 8 S. faecalis, No Serum",<= 0.1 μg/ml
